Experimental data as given in US20160113932A1, “TREATMENT OF CANCERS USING PI3 KINASE ISOFORM MODULATORS” (INFINITY PHARMACEUTICALS, INC., priority 2013, published 2016).

Columns and labels:
OCI-Ly7 = conditions: in combination with Compound 292
Method: (§1) The method is described as follows. Cells are thawed from a liquid nitrogen preserved state. Once cells have been expanded and divide at their expected doubling times, screening begins. Cells are seeded in growth media in either black 1536-well or 384-well tissue culture treated plates. […] These Tzero (T0) plates are read using ultra-sensitive luminescence on Envision plate readers (Perkin Elmer). […] All data points are collected via automated processes, quality controlled and analyzed using Zalicus software.
(§2) I ranges from 0% (when T=V) to 100% (when T=0). […] The measure of effect in the experiment can be the inhibition of cellular response relative to the untreated level (vehicle alone). For untreated vehicle and treated levels V and T, a fractional inhibition 1=1−T/V is calculated. The inhibition ranges from 0% at the untreated level to 100% when T=0 Inhibition levels are negative for agents that actually increase levels. Other effect measures, such as an activity ratio r=T/V may be more appropriate for some assays. When activity ratios (e.g, fold increase over […] control) are being used, the effect can be measured using an induction I=1n(T/V). With this definition, all effect expressions are the same as for inhibition.
(§3) Growth Inhibition (GI) is used as a measure of cell viability. […] A GI reading of 100% represents complete growth inhibition-T72 compound-treated and T0 vehicle signals are matched. […] A GI reading of 200% represents complete death of all cells in the culture well. Compounds reaching an activity plateau of GI 200% are considered cytotoxic. GI is calculated by applying the following test and equation: […]
(§4) Combination analysis data were collected in a 6×6 dose matrix. Synergy is calculated by comparing a combination's response to those of its single compound, against the drug-with-itself dose-additive reference model. Deviations from dose additivity may be assessed visually on an isobologram or numerically with a Combination Index (CI). […] Additive effect is CI=1.0. […] Antagonistic effect is CI>1.0.
(§5) To measure combination effects in excess of Loewe additivity, a scalar measure to characterize the strength of synergistic interaction termed the Synergy Score is devised. The Synergy Score is calculated as: […]
(§6) The fractional inhibition for each component agent and combination point in the matrix is calculated relative to the median of all vehicle-treated control wells. The Synergy Score equation integrates the experimentally-observed activity volume at each point in the matrix in excess of a model surface numerically derived from the activity of the component agents using the Loewe model for additivity. Additional terms in the Synergy Score equation (above) are used to normalize for various dilution factors used for individual agents and to allow for comparison of synergy scores across an entire experiment. The inclusion of positive inhibition gating or an Idata multiplier removes noise near the zero effect level, and biases results for synergistic interactions at that occur at high activity levels.
(§7) Loewe Volume (Loewe Vol) is used to assess the overall magnitude of the combination interaction in excess of the Loewe additivity model. Loewe Volume is particularly useful when distinguishing synergistic increases in a phenotypic activity (positive Loewe Volume) versus synergistic antagonisms (negative Loewe Volume). […] This model defines additivity as a non-synergistic combination interaction where the combination dose matrix surface should be indistinguishable from either drug crossed with itself.

TMD8 = conditions: in combination with Compound 292
Method: as §1, §2, §3, §4, §5, §6, §7

HH = conditions: in combination with Compound 292
Method: as §1, §2, §3, §4, §5, §6, §7

Mino = conditions: in combination with Compound 292
Method: as §1, §2, §3, §4, §5, §6, §7

GRANTA-519 = conditions: in combination with Compound 292
Method: as §1, §2, §3, §4, §5, §6, §7

SU-DHL-10-epst = conditions: in combination with Compound 292
Method: as §1, §2, §3, §4, §5, §6, §7

SU-DHL-4-epst = conditions: in combination with Compound 292
Method: as §1, §2, §3, §4, §5, §6, §7

HBL-1 = conditions: in combination with Compound 292
Method: as §1, §2, §3, §4, §5, §6, §7

Jeko-1 = conditions: in combination with Compound 292
Method: as §1, §2, §3, §4, §5, §6, §7

KARPAS-299 = conditions: in combination with Compound 292
Method: as §1, §2, §3, §4, §5, §6, §7

KARPAS-422 = conditions: in combination with Compound 292
Method: as §1, §2, §3, §4, §5, §6, §7

OCI-LY3 = conditions: in combination with Compound 292
Method: as §1, §2, §3, §4, §5, §6, §7

WSU-NHL = conditions: in combination with Compound 292
Method: as §1, §2, §3, §4, §5, §6, §7

OPM-2 = conditions: in combination with Compound 292
Method: as §1, §2, §3, §4, §5, §6, §7

U-2932 = conditions: in combination with Compound 292
Method: as §1, §2, §3, §4, §5, §6, §7

Farage = conditions: in combination with Compound 292
Method: as §1, §2, §3, §4, §5, §6, §7

DOHH-2 = conditions: in combination with Compound 292
Method: as §1, §2, §3, §4, §5, §6, §7

NCI-H929 = conditions: in combination with Compound 292
Method: as §1, §2, §3, §4, §5, §6, §7

RL = assay: Combination with BTK inhibitor, 72 h ATPLite, 6x6 dose matrix (follicular lymphoma); assay type: cell-based; conditions: in combination with Compound 292
Method: as §1, §2, §3, §4, §5, §6, §7

RPMI-8226 = assay: Combination with BTK inhibitor, 72 h ATPLite, 6x6 dose matrix (multiple myeloma); assay type: cell-based; conditions: in combination with Compound 292
Method: as §1, §2, §3, §4, §5
The fractional inhibition for each component agent and combination point in the matrix is calculated relative to the median of all vehicle-treated control wells. The Synergy Score equation integrates the experimentally-observed activity volume at each point in the matrix in excess of a model surface numerically derived from the activity of the component agents using the Loewe model for additivity. […]

PI3K γ = molecular target: T1, PI3K γ (Homo sapiens, UniProt P48736); assay: PI3K lipid kinase inhibition assay (TLC or HTRF), PI3K γ; assay type: biochemical; conditions: In Vitro
T1 construct: purchased Sigma
Excerpt: (§8) Other commercial kits or systems for assaying PI3K activities are available. […] An exemplary system is PI 3-Kinase (human) HTRF™ Assay from Upstate.

PI3K δ = PI3K δ (Homo sapiens, UniProt O00329); assay: PI3K lipid kinase inhibition assay (TLC or HTRF), PI3K δ; assay type: biochemical; set-up: purchased Upstate; conditions: In Vitro
Excerpt: as §8

PI3K β = molecular target: T2, PI3K β (Homo sapiens, UniProt P42338); assay: PI3K lipid kinase inhibition assay (TLC or HTRF), PI3K β; assay type: biochemical; conditions: In Vitro
T2 construct: purchased Upstate
Excerpt: as §8

T1 sequence (P48736 whole entry): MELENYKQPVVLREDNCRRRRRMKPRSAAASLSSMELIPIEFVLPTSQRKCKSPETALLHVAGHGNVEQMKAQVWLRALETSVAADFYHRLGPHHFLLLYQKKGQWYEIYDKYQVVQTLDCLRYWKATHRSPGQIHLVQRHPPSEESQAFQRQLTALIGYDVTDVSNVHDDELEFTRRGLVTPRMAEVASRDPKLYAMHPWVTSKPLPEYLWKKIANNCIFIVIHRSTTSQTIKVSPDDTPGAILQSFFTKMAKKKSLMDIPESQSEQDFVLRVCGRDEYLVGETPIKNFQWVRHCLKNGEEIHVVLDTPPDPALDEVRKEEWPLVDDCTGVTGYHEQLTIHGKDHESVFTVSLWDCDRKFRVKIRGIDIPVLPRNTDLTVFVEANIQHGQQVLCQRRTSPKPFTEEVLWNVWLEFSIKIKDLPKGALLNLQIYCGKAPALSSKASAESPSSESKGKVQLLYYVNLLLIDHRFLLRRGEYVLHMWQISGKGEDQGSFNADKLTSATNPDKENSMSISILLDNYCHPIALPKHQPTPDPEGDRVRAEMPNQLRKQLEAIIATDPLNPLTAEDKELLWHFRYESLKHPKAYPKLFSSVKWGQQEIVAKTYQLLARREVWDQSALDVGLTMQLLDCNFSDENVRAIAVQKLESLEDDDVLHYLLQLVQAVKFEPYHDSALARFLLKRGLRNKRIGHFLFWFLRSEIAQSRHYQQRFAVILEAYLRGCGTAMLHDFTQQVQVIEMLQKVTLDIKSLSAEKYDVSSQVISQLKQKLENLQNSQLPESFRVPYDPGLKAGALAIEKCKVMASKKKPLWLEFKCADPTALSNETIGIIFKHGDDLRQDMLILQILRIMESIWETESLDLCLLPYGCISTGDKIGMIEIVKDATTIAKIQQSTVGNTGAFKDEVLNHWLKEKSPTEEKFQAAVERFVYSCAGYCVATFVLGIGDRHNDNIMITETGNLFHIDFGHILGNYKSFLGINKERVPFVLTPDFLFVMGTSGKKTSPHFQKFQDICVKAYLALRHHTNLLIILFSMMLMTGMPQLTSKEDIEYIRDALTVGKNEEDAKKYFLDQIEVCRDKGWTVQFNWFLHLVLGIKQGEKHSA
Chain of PI3K δ (O00329 whole entry): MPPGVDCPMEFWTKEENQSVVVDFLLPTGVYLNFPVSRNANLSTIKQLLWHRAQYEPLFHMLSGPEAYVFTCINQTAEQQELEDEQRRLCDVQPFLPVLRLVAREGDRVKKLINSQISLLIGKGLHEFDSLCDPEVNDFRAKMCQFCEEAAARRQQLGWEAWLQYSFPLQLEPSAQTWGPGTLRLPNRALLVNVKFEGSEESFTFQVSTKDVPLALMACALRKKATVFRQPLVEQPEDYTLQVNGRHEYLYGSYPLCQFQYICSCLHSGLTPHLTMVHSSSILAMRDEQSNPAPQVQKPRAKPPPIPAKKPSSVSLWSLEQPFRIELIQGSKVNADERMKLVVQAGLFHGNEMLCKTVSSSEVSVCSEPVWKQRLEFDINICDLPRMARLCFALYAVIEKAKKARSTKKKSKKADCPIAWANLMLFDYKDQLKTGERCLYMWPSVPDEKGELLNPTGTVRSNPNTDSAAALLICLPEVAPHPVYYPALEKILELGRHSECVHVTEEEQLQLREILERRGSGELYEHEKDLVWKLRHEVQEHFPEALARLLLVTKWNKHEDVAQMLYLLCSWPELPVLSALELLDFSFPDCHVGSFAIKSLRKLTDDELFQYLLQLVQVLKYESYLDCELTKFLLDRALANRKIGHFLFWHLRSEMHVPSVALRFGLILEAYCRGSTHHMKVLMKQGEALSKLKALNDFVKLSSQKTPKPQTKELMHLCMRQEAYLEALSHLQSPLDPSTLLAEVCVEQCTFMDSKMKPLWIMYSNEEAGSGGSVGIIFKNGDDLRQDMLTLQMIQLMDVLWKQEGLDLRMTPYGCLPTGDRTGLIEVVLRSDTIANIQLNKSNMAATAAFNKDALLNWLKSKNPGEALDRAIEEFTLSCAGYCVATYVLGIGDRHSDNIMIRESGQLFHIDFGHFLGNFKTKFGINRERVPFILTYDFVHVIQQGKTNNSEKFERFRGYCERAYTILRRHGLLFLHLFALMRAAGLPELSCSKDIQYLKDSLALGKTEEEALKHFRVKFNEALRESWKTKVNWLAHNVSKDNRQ
Chain of PI3K δ (P27986 whole entry partner): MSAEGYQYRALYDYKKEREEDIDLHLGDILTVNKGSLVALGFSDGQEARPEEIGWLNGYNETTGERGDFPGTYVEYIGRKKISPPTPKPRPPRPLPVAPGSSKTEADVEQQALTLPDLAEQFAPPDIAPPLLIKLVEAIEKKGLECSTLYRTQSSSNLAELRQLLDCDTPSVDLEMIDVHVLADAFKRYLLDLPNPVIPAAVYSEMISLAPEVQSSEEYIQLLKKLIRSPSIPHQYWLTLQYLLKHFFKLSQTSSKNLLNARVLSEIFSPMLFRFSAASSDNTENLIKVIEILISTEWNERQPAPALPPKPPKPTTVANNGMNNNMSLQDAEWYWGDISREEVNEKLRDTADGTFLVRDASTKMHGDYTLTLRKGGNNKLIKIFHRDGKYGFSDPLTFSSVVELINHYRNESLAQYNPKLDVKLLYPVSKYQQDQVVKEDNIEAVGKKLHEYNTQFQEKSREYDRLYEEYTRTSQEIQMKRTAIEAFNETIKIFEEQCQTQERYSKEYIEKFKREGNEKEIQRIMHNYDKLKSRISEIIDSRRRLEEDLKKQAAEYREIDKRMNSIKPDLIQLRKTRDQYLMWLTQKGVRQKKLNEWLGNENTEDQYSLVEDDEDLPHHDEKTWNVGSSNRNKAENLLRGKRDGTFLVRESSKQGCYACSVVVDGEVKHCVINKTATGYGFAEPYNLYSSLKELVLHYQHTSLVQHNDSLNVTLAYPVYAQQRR
T2 sequence (P42338 whole entry): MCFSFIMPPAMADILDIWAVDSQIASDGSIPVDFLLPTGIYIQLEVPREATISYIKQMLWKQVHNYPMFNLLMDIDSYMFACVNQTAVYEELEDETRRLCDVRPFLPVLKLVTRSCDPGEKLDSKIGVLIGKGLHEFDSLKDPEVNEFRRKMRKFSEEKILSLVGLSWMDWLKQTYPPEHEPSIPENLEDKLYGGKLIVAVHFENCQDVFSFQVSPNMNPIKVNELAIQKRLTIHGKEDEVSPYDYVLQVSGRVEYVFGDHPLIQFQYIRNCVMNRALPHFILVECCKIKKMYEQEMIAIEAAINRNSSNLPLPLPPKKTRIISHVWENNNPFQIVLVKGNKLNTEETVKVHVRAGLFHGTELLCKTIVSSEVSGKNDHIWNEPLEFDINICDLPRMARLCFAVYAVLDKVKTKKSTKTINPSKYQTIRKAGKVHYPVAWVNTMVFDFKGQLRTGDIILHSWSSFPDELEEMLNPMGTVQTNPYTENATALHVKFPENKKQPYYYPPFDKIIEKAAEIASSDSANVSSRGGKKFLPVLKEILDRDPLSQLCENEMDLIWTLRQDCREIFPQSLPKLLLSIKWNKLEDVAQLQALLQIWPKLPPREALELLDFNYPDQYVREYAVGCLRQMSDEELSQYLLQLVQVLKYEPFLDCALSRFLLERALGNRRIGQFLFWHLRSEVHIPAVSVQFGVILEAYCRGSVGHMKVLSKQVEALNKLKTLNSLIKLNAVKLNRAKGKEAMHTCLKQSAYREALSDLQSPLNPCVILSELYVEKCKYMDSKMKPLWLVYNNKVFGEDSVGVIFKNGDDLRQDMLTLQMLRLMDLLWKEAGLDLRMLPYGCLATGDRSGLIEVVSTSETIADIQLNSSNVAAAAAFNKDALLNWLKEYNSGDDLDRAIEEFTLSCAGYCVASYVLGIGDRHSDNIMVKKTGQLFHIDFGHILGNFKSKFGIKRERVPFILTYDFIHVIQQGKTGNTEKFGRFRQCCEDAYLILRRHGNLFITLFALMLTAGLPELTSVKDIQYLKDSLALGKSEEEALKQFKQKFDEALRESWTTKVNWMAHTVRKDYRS
T2 sequence (P27986 whole entry partner): as the sequence (P27986 whole entry partner) above

C=CC(=O)Nc1cccc(Nc2nc(Nc3ccc(OCCOC)cc3)ncc2F)c1 [AVL-292, N-(3-((5-fluoro-2-((4-(2-methoxyethoxy)phenyl)amino)pyrimidin-4-yl)amino)phenyl)acrylamide]
S (S=0.01 to <0.5): CI50 (growth inhibition) (TMD8) | CI50 (inhibition) (TMD8) | CI50 (growth inhibition) (Mino) | CI50 (inhibition) (Mino) | CI50 (inhibition) (SU-DHL-4-epst) | CI50 (inhibition) (WSU-NHL) | CI50 (growth inhibition) (Farage) | CI50 (inhibition) (Farage)
U (U=0.7 to <1): CI50 (inhibition) (HH) | CI50 (growth inhibition) (Jeko-1) | CI50 (inhibition) (Jeko-1) | CI50 (growth inhibition) (KARPAS-299) | CI50 (growth inhibition) (KARPAS-422) | CI50 (growth inhibition) (OCI-LY3) | CI50 (inhibition) (OPM-2) | CI50 (growth inhibition) (NCI-H929) | CI50 (inhibition) (NCI-H929) | CI50 (growth inhibition) (RPMI-8226)
A3 (A3=>3): Synergy Score (growth inhibition) (TMD8) | Synergy Score (growth inhibition) (Mino) | Synergy Score (growth inhibition) (SU-DHL-10-epst) | Synergy Score (growth inhibition) (WSU-NHL) | Synergy Score (growth inhibition) (Farage) | Synergy Score (growth inhibition) (DOHH-2)
A1 (A1=0.0001 to <1): Synergy Score (growth inhibition) (OCI-Ly7) | Synergy Score (inhibition) (OCI-Ly7) | Synergy Score (growth inhibition) (GRANTA-519) | Synergy Score (inhibition) (GRANTA-519) | Synergy Score (inhibition) (HBL-1) | Synergy Score (growth inhibition) (Jeko-1) | Synergy Score (inhibition) (Jeko-1) | Synergy Score (growth inhibition) (KARPAS-299) | Synergy Score (inhibition) (KARPAS-299) | Synergy Score (inhibition) (KARPAS-422) | Synergy Score (growth inhibition) (OCI-LY3) | Synergy Score (inhibition) (OCI-LY3) | Synergy Score (inhibition) (OPM-2) | Synergy Score (inhibition) (U-2932) | Synergy Score (inhibition) (NCI-H929) | Synergy Score (growth inhibition) (RL) | Synergy Score (inhibition) (RL) | Synergy Score (growth inhibition) (RPMI-8226) | Synergy Score (inhibition) (RPMI-8226)
W (W=≧1): CI50 (growth inhibition) (OCI-Ly7) | CI50 (growth inhibition) (GRANTA-519) | CI50 (inhibition) (HBL-1) | CI50 (inhibition) (U-2932) | CI50 (inhibition) (RPMI-8226)
T (T=0.5 to <0.7): CI50 (growth inhibition) (HH) | CI50 (growth inhibition) (SU-DHL-10-epst) | CI50 (inhibition) (SU-DHL-10-epst) | CI50 (growth inhibition) (SU-DHL-4-epst) | CI50 (growth inhibition) (HBL-1) | CI50 (inhibition) (KARPAS-422) | CI50 (growth inhibition) (WSU-NHL) | CI50 (growth inhibition) (OPM-2) | CI50 (growth inhibition) (U-2932) | CI50 (growth inhibition) (DOHH-2) | CI50 (inhibition) (DOHH-2)
A2 (A2=1 to <3): Synergy Score (inhibition) (TMD8) | Synergy Score (growth inhibition) (HH) | Synergy Score (inhibition) (HH) | Synergy Score (inhibition) (Mino) | Synergy Score (inhibition) (SU-DHL-10-epst) | Synergy Score (growth inhibition) (SU-DHL-4-epst) | Synergy Score (inhibition) (SU-DHL-4-epst) | Synergy Score (growth inhibition) (HBL-1) | Synergy Score (growth inhibition) (KARPAS-422) | Synergy Score (inhibition) (WSU-NHL) | Synergy Score (growth inhibition) (OPM-2) | Synergy Score (growth inhibition) (U-2932) | Synergy Score (inhibition) (Farage) | Synergy Score (inhibition) (DOHH-2) | Synergy Score (growth inhibition) (NCI-H929)

Cc1ccccc1-n1c(Cn2cnc3c(N)ncnc32)cc2cccc(C)c2c1=O [Compound 5]
< 10000 nM: IC50 (PI3K δ)
> 10000 nM: IC50 (PI3K γ)

Cc1cccnc1-n1c(Cn2nc(-c3cccc(O)c3)c3c(N)ncnc32)cc2ccccc2c1=O [Compound 94]
< 1000 nM: IC50 (PI3K δ)
< 10000 nM: IC50 (PI3K γ)

Cc1ccccc1-n1c(Cn2nc(I)c3c(N)ncnc32)cc2cccc(C)c2c1=O [Compound 104]
< 1000 nM: IC50 (PI3K γ)
> 10000 nM: IC50 (PI3K β)

Cc1ccccc1-n1c(Cn2nc(-c3cc(O)cc(F)c3)c3c(N)ncnc32)cc2cccc(C)c2c1=O [Compound 113]
< 10000 nM: IC50 (PI3K β)

Cc1ccccc1-n1c(Cn2nc(-c3cccc(O)c3)c3c(N)nccc32)cc2cccc(C)c2c1=O [Compound 119]
< 100 nM: IC50 (PI3K δ)
